# Molecular target: MASP-2 CCP2-SP (Homo sapiens (Human), UniProt O00187)
# Assay: MASP-2 co-crystallization, X-ray crystallography and structure analysis (H-bonds, van der Waals contacts);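 as to Ligand-pharmacophore element distance, pharmacophore element C2: distance from averaged pharmacophore element to bound ligand; missing value means element absent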;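 as to Ligand-pharmacophore element distance, pharmacophore element C3: distance from averaged pharmacophore element to bound ligand; missing value means element absent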;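 as to Ligand-pharmacophore element distance, pharmacophore element C4: distance from averaged pharmacophore element to bound ligand; missing value means element absent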;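 as to Ligand-pharmacophore element distance, pharmacophore element C5: distance from averaged pharmacophore element to bound ligand; missing value means element absent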
# Set-up: van der Waals contact distance, MASP-2 HIS 483 atom CD2 / van der Waals contact distance, MASP-2 HIS 483 atom NE2 / van der Waals contact distance, SER 654 C to compound atom / van der Waals contact distance, SER 654 O to compound atom / van der Waals contact distance, TRP 655 C to compound atom / van der Waals contact distance, MASP-2 GLY 528 atom CA / van der Waals contact distance TRP 655 atom CZ3 / van der Waals contact distance TRP 655 atom N / van der Waals contact distance TRP 655 atom CE3 / van der Waals contact distance GLY 656 atom C / van der Waals contact distance GLY 656 atom CA / van der Waals contact distance GLY 656 atom O / van der Waals contact distance, MASP-2 TYR 607 atom CD1 / van der Waals contact distance, MASP-2 PRO 606 atom O / d(C3,CA1) / d(CA1,N1)2 / d(H4,O1) / d(H4,O2) / d(O1,O2) / d(CA1,O2) / d(CA6,O1) / d(CA6,O2) / d(CA1,C5) / d(O2,H3) / d(N2,C2) / d(CA5,N2) / d(N2,C4) / d(N2,C6) / d(N2,CA3) / d(N2,O3) / d(O4,H2): unit not given beside the values
# Conditions: Table A4-1; element C2
# Description: This example illustrates the preparation of recombinant MASP-2 protein, based on UniProt O00187, human mannan-binding lectin serine protease 2. Expression constructs for human MASP-2 CCP2-SP and CCP2-SP-6HIS were generated for recombinant expression in E. coli cells.
# Typically, crystallization hits were obtained by screening against […] 96-well crystallization reagent kits (GRAS6, GRAS2, Hampton Research; MORPHEUS, Molecular Dimensions; Wizard 1&2 Cryo, Rigaku Reagents) and crystal growth was inspected by optical microscopy. Crystals were used directly or further optimized for X-ray diffraction. Crystals were captured with cryogenic loops and dipped into liquid nitrogen directly or cryoprotected with a 20% glycerol in crystallization formulation before flash-cooling in liquid nitrogen.
# Thereafter crystals are transferred once or twice for soaking within the crystallization solution containing the MASP-2 inhibitor.
# Crystals were diffracted with synchrotron X-rays of […] and X-ray diffraction datasets were collected at beamlines SSRL BL9-2, BL14-1, BL12-2 as well as ALS sector 5 using Dectris Pilatus and Eiger detectors. Structures were determined by molecular replacement using portions of the structure 1Q3X as search models and partially refined with Buster 2.10.2 or Refmac 5.8. […] When multiple ligand poses were observed, for instance arising from multiple molecules in the asymmetric unit or refined dual poses within the same molecule, only one pose was selected and analyzed.
# LigPlot+ calls these ‘nonbonded contacts’ or ‘hydrophobic contacts’. Despite the name, there are atom pairings that include possible H-bonds. Thus, in some instances, the Table A2 also contains H-bond interactions.
# Sequence of MASP-2 CCP2-SP (O00187 445-686): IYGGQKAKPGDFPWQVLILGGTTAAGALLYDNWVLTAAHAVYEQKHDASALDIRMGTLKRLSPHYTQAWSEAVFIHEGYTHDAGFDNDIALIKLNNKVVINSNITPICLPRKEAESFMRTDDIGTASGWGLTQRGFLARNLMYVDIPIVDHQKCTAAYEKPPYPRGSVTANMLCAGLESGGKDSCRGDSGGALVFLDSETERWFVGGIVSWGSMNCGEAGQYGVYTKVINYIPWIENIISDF
# Sequence of MASP-2 CCP2-SP (O00187 364-432 partner): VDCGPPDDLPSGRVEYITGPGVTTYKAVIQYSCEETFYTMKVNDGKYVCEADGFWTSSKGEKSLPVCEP
row,SMILES,"Ligand-pharmacophore element distance, pharmacophore element C2"
1,C[C@H](NC(=O)[C@H]1C[C@@H](c2ccccc2)CCN1)C(=O)NCc1cc(Cl)ccc1O.Cl [1078_12],0.4
2,C[C@H](NC(=O)[C@H]1C[C@@H](c2ccccc2)CCN1)C(=O)NCc1cc(Cl)ccc1O.Cl [1078_13],0.58

# Same assay, conditions: Table A4-1; element C3
row,SMILES,"Ligand-pharmacophore element distance, pharmacophore element C3"
1,C[C@H](NC(=O)[C@H]1C[C@@H](c2ccccc2)CCN1)C(=O)NCc1cc(Cl)ccc1O.Cl [1078_12],0
2,C[C@H](NC(=O)[C@H]1C[C@@H](c2ccccc2)CCN1)C(=O)NCc1cc(Cl)ccc1O.Cl [1078_13],0

# Same assay, conditions: Table A4-1; element C4
row,SMILES,"Ligand-pharmacophore element distance, pharmacophore element C4"
1,C[C@H](NC(=O)[C@H]1C[C@@H](c2ccccc2)CCN1)C(=O)NCc1cc(Cl)ccc1O.Cl [1078_12],0
2,C[C@H](NC(=O)[C@H]1C[C@@H](c2ccccc2)CCN1)C(=O)NCc1cc(Cl)ccc1O.Cl [1078_13],0

# Same assay, conditions: Table A4-1; element C5
row,SMILES,"Ligand-pharmacophore element distance, pharmacophore element C5"
1,C[C@H](NC(=O)[C@H]1C[C@@H](c2ccccc2)CCN1)C(=O)NCc1cc(Cl)ccc1O.Cl [1078_12],0.52
2,C[C@H](NC(=O)[C@H]1C[C@@H](c2ccccc2)CCN1)C(=O)NCc1cc(Cl)ccc1O.Cl [1078_13],0.47

# Same assay, conditions: Table A4-1; element C6
row,SMILES,"Ligand-pharmacophore element distance, pharmacophore element C6"
1,C[C@H](NC(=O)[C@H]1C[C@@H](c2ccccc2)CCN1)C(=O)NCc1cc(Cl)ccc1O.Cl [1078_12],0
2,C[C@H](NC(=O)[C@H]1C[C@@H](c2ccccc2)CCN1)C(=O)NCc1cc(Cl)ccc1O.Cl [1078_13],0

# Same assay, conditions: Table A4-1; element C7
row,SMILES,"Ligand-pharmacophore element distance, pharmacophore element C7"
1,C[C@H](NC(=O)[C@H]1C[C@@H](c2ccccc2)CCN1)C(=O)NCc1cc(Cl)ccc1O.Cl [1078_12],0
2,C[C@H](NC(=O)[C@H]1C[C@@H](c2ccccc2)CCN1)C(=O)NCc1cc(Cl)ccc1O.Cl [1078_13],0

# Same assay, conditions: Table A4-1; element CA1
row,SMILES,"Ligand-pharmacophore element distance, pharmacophore element CA1"
1,C[C@H](NC(=O)[C@H]1C[C@@H](c2ccccc2)CCN1)C(=O)NCc1cc(Cl)ccc1O.Cl [1078_12],1.43
2,C[C@H](NC(=O)[C@H]1C[C@@H](c2ccccc2)CCN1)C(=O)NCc1cc(Cl)ccc1O.Cl [1078_13],1.62

# Same assay, conditions: Table A4-1; element CA2
row,SMILES,"Ligand-pharmacophore element distance, pharmacophore element CA2"
1,C[C@H](NC(=O)[C@H]1C[C@@H](c2ccccc2)CCN1)C(=O)NCc1cc(Cl)ccc1O.Cl [1078_12],0.64
2,C[C@H](NC(=O)[C@H]1C[C@@H](c2ccccc2)CCN1)C(=O)NCc1cc(Cl)ccc1O.Cl [1078_13],0.73

# Same assay, conditions: Table A4-1; element CA3
row,SMILES,"Ligand-pharmacophore element distance, pharmacophore element CA3"
1,C[C@H](NC(=O)[C@H]1C[C@@H](c2ccccc2)CCN1)C(=O)NCc1cc(Cl)ccc1O.Cl [1078_12],0
2,C[C@H](NC(=O)[C@H]1C[C@@H](c2ccccc2)CCN1)C(=O)NCc1cc(Cl)ccc1O.Cl [1078_13],0

# Same assay, conditions: Table A4-1; element CA4
row,SMILES,"Ligand-pharmacophore element distance, pharmacophore element CA4"
1,C[C@H](NC(=O)[C@H]1C[C@@H](c2ccccc2)CCN1)C(=O)NCc1cc(Cl)ccc1O.Cl [1078_12],0
2,C[C@H](NC(=O)[C@H]1C[C@@H](c2ccccc2)CCN1)C(=O)NCc1cc(Cl)ccc1O.Cl [1078_13],0

# Same assay, conditions: Table A4-1; element CA5
row,SMILES,"Ligand-pharmacophore element distance, pharmacophore element CA5"
1,C[C@H](NC(=O)[C@H]1C[C@@H](c2ccccc2)CCN1)C(=O)NCc1cc(Cl)ccc1O.Cl [1078_12],0
2,C[C@H](NC(=O)[C@H]1C[C@@H](c2ccccc2)CCN1)C(=O)NCc1cc(Cl)ccc1O.Cl [1078_13],0

# Same assay, conditions: Table A4-1; element CA6
row,SMILES,"Ligand-pharmacophore element distance, pharmacophore element CA6"
1,C[C@H](NC(=O)[C@H]1C[C@@H](c2ccccc2)CCN1)C(=O)NCc1cc(Cl)ccc1O.Cl [1078_12],0
2,C[C@H](NC(=O)[C@H]1C[C@@H](c2ccccc2)CCN1)C(=O)NCc1cc(Cl)ccc1O.Cl [1078_13],0

# Same assay, conditions: Table A5-1 pharmacophore: distance between elements, S2/S1 region
SMILES,"d(CA1,C5)","d(CA1,O1)","d(CA1,O2)","d(CA1,O4)","d(H4,O1)","d(H4,O2)","d(O1,O2)","d(O4,H2)"
C[C@H](NC(=O)[C@H]1C[C@@H](c2ccccc2)CCN1)C(=O)NCc1cc(Cl)ccc1O.Cl [1078_12],3.12,4.34,4.51,2.74,3.08,3.40,2.81,0.98
C[C@H](NC(=O)[C@H]1C[C@@H](c2ccccc2)CCN1)C(=O)NCc1cc(Cl)ccc1O.Cl [1078_13],3.12,4.37,4.66,2.76,3.14,3.66,3.25,0.98

# Same assay, conditions: Table A5-2 pharmacophore distance, S3/S4 region
SMILES,"d(N2,C2)","d(N2,CA2)","d(O2,H3)","d(O2,N2)"
C[C@H](NC(=O)[C@H]1C[C@@H](c2ccccc2)CCN1)C(=O)NCc1cc(Cl)ccc1O.Cl [1078_12],1.45,5.74,2.85,2.84
C[C@H](NC(=O)[C@H]1C[C@@H](c2ccccc2)CCN1)C(=O)NCc1cc(Cl)ccc1O.Cl [1078_13],1.47,5.61,2.11,2.79

# Same assay, conditions: Table A6-1 pharmacophore angle
SMILES,"a(C5, CA1, O1)","a(CA1, O1, O2)","a(CA1, O4, H2)","a(O1, CA1, O4)","a(O1, O2, H4)"
C[C@H](NC(=O)[C@H]1C[C@@H](c2ccccc2)CCN1)C(=O)NCc1cc(Cl)ccc1O.Cl [1078_12],161.92,111.74,127.55,67.44,128.90
C[C@H](NC(=O)[C@H]1C[C@@H](c2ccccc2)CCN1)C(=O)NCc1cc(Cl)ccc1O.Cl [1078_13],162.99,115.77,129.33,65.06,123.59

# Same assay, conditions: Table A6-2 pharmacophore angle
SMILES,"a(O1, O2, H3)","a(O1, O2, N2)","a(O2, N2, C2)","a(O2, N2, CA2)"
C[C@H](NC(=O)[C@H]1C[C@@H](c2ccccc2)CCN1)C(=O)NCc1cc(Cl)ccc1O.Cl [1078_12],150.80,154.56,130.32,157.60
C[C@H](NC(=O)[C@H]1C[C@@H](c2ccccc2)CCN1)C(=O)NCc1cc(Cl)ccc1O.Cl [1078_13],135.66,146.15,127.57,154.39

# Same assay, conditions: Table A7-1; between pharmacophore elements of the bound compound
SMILES,"Pharmacophore torsion angle a(C5, CA1, O1, H4)","Pharmacophore torsion angle a(H4, O1, O2, H3)","Pharmacophore torsion angle a(H4, O1, O2, N2)","Pharmacophore torsion angle a(O1, H4, O2, CA1)","Pharmacophore torsion angle a(O1, O2, N2, C2)"
C[C@H](NC(=O)[C@H]1C[C@@H](c2ccccc2)CCN1)C(=O)NCc1cc(Cl)ccc1O.Cl [1078_12],11.21,−120.32,−108.09,−75.33,114.97
C[C@H](NC(=O)[C@H]1C[C@@H](c2ccccc2)CCN1)C(=O)NCc1cc(Cl)ccc1O.Cl [1078_13],−7.66,−157.30,−162.99,−78.80,118.91

# Same assay, conditions: Table A7-2; between pharmacophore elements of the bound compound
row,SMILES,"Pharmacophore torsion angle a(O1, O2, N2, CA2)"
1,C[C@H](NC(=O)[C@H]1C[C@@H](c2ccccc2)CCN1)C(=O)NCc1cc(Cl)ccc1O.Cl [1078_12],110.39
2,C[C@H](NC(=O)[C@H]1C[C@@H](c2ccccc2)CCN1)C(=O)NCc1cc(Cl)ccc1O.Cl [1078_13],137.37
